Laboratory results as given in patent US8865623B2, “Herbicidally active cyclic diones and derivatives thereof, processes for their preparation, compositions, and method of controlling weeds” (Syngenta Limited, priority 2009, dated 2014).

Columns and labels:
Assay type in all cases: in vivo
[1] = test system: Echinochloa crus-galli (ECHCG); assay: Pre-emergence herbicidal activity, glasshouse pot test; conditions: Echinochloa crus-galli, 312 h; Rate 250 g/ha; pre-emergence spray; evaluated after 13 days; read-out: Pre-emergence activity ECHCG (100=total damage to plant; 0=no damage to plant)
How it was run: (§1)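 Pot-grown plants in standard soil received a spray one day post-sowing (pre-emergence) or after eight days' growth (post-emergence). Scoring took place 13 days later on a 0–100 scale, 100 meaning total damage.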

[2] = test system: Alopecurus myosuroides (ALOMY); assay: as above; conditions: Alopecurus myosuroides, 312 h; Rate 250 g/ha; pre-emergence spray; evaluated after 13 days; read-out: Pre-emergence activity ALOMY (100=total damage to plant; 0=no damage to plant)
How it was run: as §1

[3] = test system: Avena fatua (AVEFA); assay: as above; conditions: Avena fatua, 312 h; Rate 250 g/ha; pre-emergence spray; evaluated after 13 days; read-out: Pre-emergence activity AVEFA (100=total damage to plant; 0=no damage to plant)
How it was run: as §1

[4] = test system: Lolium perenne (LOLPE); assay: as above; conditions: Lolium perenne, 312 h; Rate 250 g/ha; pre-emergence spray; evaluated after 13 days; read-out: Pre-emergence activity LOLPE (100=total damage to plant; 0=no damage to plant)
How it was run: as §1

[5] = test system: Echinochloa crus-galli (ECHCG); assay: Post-emergence herbicidal activity, glasshouse pot test; conditions: Echinochloa crus-galli, 312 h, rate 250 g/ha, evaluated after 13 days, glasshouse, read-out: Post-emergence activity ECHCG (100=total damage to plant; 0=no damage to plant)
How it was run: as §1

[6] = test system: Alopecurus myosuroides (ALOMY); assay: as above; conditions: Alopecurus myosuroides, 312 h, rate 250 g/ha, evaluated after 13 days, glasshouse, read-out: Post-emergence activity ALOMY (100=total damage to plant; 0=no damage to plant)
How it was run: as §1

[7] = test system: Avena fatua (AVEFA); assay: as above; conditions: Avena fatua, 312 h, rate 250 g/ha, evaluated after 13 days, glasshouse, read-out: Post-emergence activity AVEFA (100=total damage to plant; 0=no damage to plant)
How it was run: as §1

[8] = test system: Lolium perenne (LOLPE); assay: as above; conditions: Lolium perenne, 312 h, rate 250 g/ha, evaluated after 13 days, glasshouse, read-out: Post-emergence activity LOLPE (100=total damage to plant; 0=no damage to plant)
How it was run: as §1

| Structure (SMILES) | pest or weed control at 250 g/ha [1] | pest or weed control at 250 g/ha [2] | pest or weed control at 250 g/ha [3] | pest or weed control at 250 g/ha [4] | pest or weed control at 250 g/ha [5] | pest or weed control at 250 g/ha [6] | pest or weed control at 250 g/ha [7] | pest or weed control at 250 g/ha [8] |
| --- | --- | --- | --- | --- | --- | --- | --- | --- |
| CCc1ccc(Oc2ccc([N+](=O)[O-])cc2)cc1C1=C(O)C(C)(C)OC(C)(C)C1=O [Example A-195] | 100% | 30% | 0% | 40% | 100% | 60% | 60% | 80% |
| CCc1ccc(Oc2ccc([N+](=O)[O-])c(C#N)c2)cc1C1=C(O)C(C)(C)OC(C)(C)C1=O [Example A-196] | 0% | 0% | 0% | 0% | 20% | 0% | 0% | 10% |
| CCc1ccc(Oc2ccc([N+](=O)[O-])c(C(F)(F)F)c2)cc1C1=C(O)C(C)(C)OC(C)(C)C1=O [Example A-197] | 30% | 0% | 10% | 20% | 100% | 70% | 70% | 60% |
| CCc1ccc(Oc2ccc([N+](=O)[O-])cc2C(F)(F)F)cc1C1=C(O)C(C)(C)OC(C)(C)C1=O [Example A-198] | 60% | 0% | 0% | 10% | 100% | 70% | 60% | 70% |
| CCc1ccc(Oc2ccc([N+](=O)[O-])c(C)c2)cc1C1=C(O)C(C)(C)OC(C)(C)C1=O [Example A-200] | 50% | 20% | 0% | 60% | 90% | 70% | 10% | 70% |
| CCc1ccc(Oc2ccc([N+](=O)[O-])cc2Cl)cc1C1=C(O)C(C)(C)OC(C)(C)C1=O [Example A-201] | 60% | 10% | 0% | 30% | 100% | 60% | 60% | 70% |
| CCc1ccc(Oc2ccc([N+](=O)[O-])cc2C#N)cc1C1=C(O)C(C)(C)OC(C)(C)C1=O [Example A-202] | 60% | 0% | 0% | 10% | 60% | 10% | 20% | 30% |
| CCc1ccc(Oc2ccc(C(F)(F)F)cc2[N+](=O)[O-])cc1C1=C(O)C(C)(C)OC(C)(C)C1=O [Example A-203] | 50% | 20% | 30% | 90% | 90% | 90% | 100% | 90% |
| CCc1ccc(Oc2c(Cl)cc(C(F)(F)F)cc2Cl)cc1C1=C(O)C(C)(C)OC(C)(C)C1=O [Example A-204] | 20% | 0% | 0% | 10% | 70% | 60% | 50% | 40% |
| CCc1ccc(Oc2c(F)cc(C(F)(F)F)cc2F)cc1C1=C(O)C(C)(C)OC(C)(C)C1=O [Example A-205] | 60% | 20% | 10% | 60% | 100% | 70% | 60% | 90% |
